In patent US8927717B1, “Thiochromeno[2,3-c]quinolin-12-one derivatives, preparation method and application thereof” (National Defense Medical Center, priority 2014, dated 2015):

Legend:
Format in all cases: cell-based
CCRF-CEM = details: CCRF-CEM
HL-60(TB) = details: HL-60(TB); 10^−5 molar
K-562 = details: K-562
RPMI-8226 = details: RPMI-8226
SR = details: SR
HOP-62 = details: HOP-62
NCI-H226 = details: NCI-H226
NCI-H460 = details: NCI-H460
NCI-H522 = details: NCI-H522
COLO 205 = details: COLO 205
HCT-116 = details: HCT-116
HCT-15 = details: HCT-15
HT29 = details: HT29
KM12 = assay: cells; details: KM12
SW-620 = details: SW-620
SF-295 = details: SF-295
SNB-19 = details: SNB-19
SNB-75 = details: SNB-75
U251 = details: U251
LOX IMVI = details: LOX IMVI
M14 = details: M14
SK-MEL-28 = details: SK-MEL-28

With `O=c1c2cc(Cl)ccc2sc2c(NCCCNCCO)nc3ccccc3c12` [Compound N19, 10-Chloro-6-((3-((2-hydroxyethyl)amino)propyl)amino)-12H-thiochromeno[2,3-c]quinolin-12-one] as the molecule, how does the Growth percent (CCRF-CEM; 10^−5 molar) read?
Its Growth percent is −54.78%.

What about the TGI (CCRF-CEM; five dose) of the same molecule?
The TGI was 3.80 µM.

What about the GI50 (CCRF-CEM; Homo sapiens, five dose) of the same molecule?
Its GI50 is 1.83 µM.

What about the Growth percent (HL-60(TB)) of the same molecule?
Its Growth percent is −37.88%.

And the GI50 (K-562; Homo sapiens, K562, five dose)?
Its GI50 is 1.73 µM.

And the CC50 (K-562; Homo sapiens, K562, five dose, read-out: LC50 (the source's name))?
Its CC50 is greater than 100 µM.

What about the Growth percent (K-562; 10^−5 molar) of the same molecule?
Its Growth percent is −66.94%.

What about the GI50 (RPMI-8226; Homo sapiens, five dose) of the same molecule?
The GI50 was 1.84 µM.

And the Growth percent (RPMI-8226; 10^−5 molar)?
Its Growth percent is 5.53%.

And the TGI (RPMI-8226; five dose)?
The TGI was 4.21 µM.

What about the GI50 (SR; Homo sapiens, five dose) of the same molecule?
Its GI50 is 1.98 µM.

And the Growth percent (SR; 10^−5 molar)?
The Growth percent was −51.40%.

What about the TGI (SR; five dose) of the same molecule?
Its TGI is 4.55 µM.

And the Growth percent (HOP-62; 10^−5 molar)?
The Growth percent was 36.97%.

And the TGI (HOP-62; five dose)?
Its TGI is 2.89 µM.

What about the GI50 (HOP-62; Homo sapiens, five dose) of the same molecule?
Its GI50 is 1.38 µM.

What about the GI50 (NCI-H226; Homo sapiens, five dose) of the same molecule?
Its GI50 is 1.9 µM.

What about the Growth percent (NCI-H226; 10^−5 molar) of the same molecule?
The Growth percent was 86.75%.

What about the TGI (NCI-H226; five dose) of the same molecule?
Its TGI is 4.46 µM.

And the GI50 (NCI-H460; Homo sapiens, five dose)?
The GI50 was 1.66 µM.

What about the Growth percent (NCI-H460; 10^−5 molar) of the same molecule?
Its Growth percent is −80.98%.

What about the TGI (NCI-H460; five dose) of the same molecule?
The TGI was 3.35 µM.

What about the GI50 (NCI-H522; Homo sapiens, five dose) of the same molecule?
The GI50 was 1.85 µM.

What about the Growth percent (NCI-H522; 10^−5 molar) of the same molecule?
The Growth percent was −59.68%.

And the TGI (NCI-H522; five dose)?
Its TGI is 3.56 µM.

And the Growth percent (COLO 205; 10^−5 molar)?
The Growth percent was −87.17%.

What about the TGI (COLO 205; five dose) of the same molecule?
The TGI was 3.37 µM.

And the GI50 (COLO 205; Homo sapiens, five dose)?
The GI50 was 1.63 µM.

And the Growth percent (HCT-116; 10^−5 molar)?
The Growth percent was −91.19%.

And the TGI (HCT-116; five dose)?
The TGI was 3.05 µM.

What about the GI50 (HCT-116; Homo sapiens, five dose) of the same molecule?
The GI50 was 1.6 µM.

And the Growth percent (HCT-15; 10^−5 molar)?
The Growth percent was −76.47%.

What about the TGI (HCT-15; five dose) of the same molecule?
The TGI was 3.25 µM.

What about the GI50 (HCT-15; Homo sapiens, five dose) of the same molecule?
Its GI50 is 1.61 µM.

And the Growth percent (HT29; 10^−5 molar)?
Its Growth percent is −83.53%.

What about the TGI (HT29; five dose) of the same molecule?
Its TGI is 4.00 µM.

What about the GI50 (HT29; Homo sapiens, HT-29, five dose) of the same molecule?
Its GI50 is 2.05 µM.

And the GI50 (KM12; Homo sapiens, five dose)?
The GI50 was 1.67 µM.

What about the Growth percent (KM12; 10^−5 molar) of the same molecule?
The Growth percent was −83.29%.

What about the TGI (KM12; five dose) of the same molecule?
Its TGI is 3.31 µM.

What about the GI50 (SW-620; Homo sapiens, five dose) of the same molecule?
Its GI50 is 1.63 µM.

And the Growth percent (SW-620; 10^−5 molar)?
Its Growth percent is −81.48%.

And the TGI (SW-620; five dose)?
Its TGI is 3.30 µM.

What about the GI50 (SF-295; Homo sapiens, five dose) of the same molecule?
The GI50 was 1.73 µM.

And the Growth percent (SF-295; 10^−5 molar)?
Its Growth percent is −93.00%.

What about the TGI (SF-295; five dose) of the same molecule?
Its TGI is 3.33 µM.

What about the GI50 (SNB-19; Homo sapiens, five dose) of the same molecule?
Its GI50 is 1.64 µM.

And the Growth percent (SNB-19; 10^−5 molar)?
Its Growth percent is 46.07%.

What about the TGI (SNB-19; five dose) of the same molecule?
The TGI was 3.26 µM.

What about the GI50 (SNB-75; Homo sapiens, five dose) of the same molecule?
The GI50 was 1.28 µM.

What about the Growth percent (SNB-75; 10^−5 molar) of the same molecule?
The Growth percent was 23.66%.

And the TGI (SNB-75; five dose)?
Its TGI is 2.56 µM.

And the GI50 (U251; Homo sapiens, U-251, five dose)?
Its GI50 is 1.73 µM.

What about the Growth percent (U251; 10^−5 molar) of the same molecule?
Its Growth percent is −66.76%.

And the TGI (U251; five dose)?
Its TGI is 3.22 µM.

And the GI50 (LOX IMVI; Homo sapiens, five dose)?
The GI50 was 1.8 µM.

What about the Growth percent (LOX IMVI; 10^−5 molar) of the same molecule?
The Growth percent was −82.79%.

What about the TGI (LOX IMVI; five dose) of the same molecule?
Its TGI is 3.80 µM.

And the GI50 (M14; Homo sapiens, five dose)?
Its GI50 is 1.83 µM.

What about the Growth percent (M14; 10^−5 molar) of the same molecule?
Its Growth percent is 6.12%.

And the TGI (M14; five dose)?
Its TGI is 3.53 µM.

And the GI50 (SK-MEL-28; Homo sapiens, five dose)?
The GI50 was 1.89 µM.

What about the Growth percent (SK-MEL-28; 10^−5 molar) of the same molecule?
Its Growth percent is −94.33%.
